# Measured values: the supplement of paper PMC10307832
# What was measured:
# Assay in all cases: relative viability (nuclei count vs DMSO), 5 days (fraction); higher = more cells survive
# [1] = compound: C1=CC=C2C(=C1)N=C(S2)C(C#N)C3=NC(=NC=C3)NCCC4=CN=CC=C4 + O=C(c1cc(Cc2n[nH]c(=O)c3ccccc23)ccc1F)N1CCN(C(=O)C2CC2)CC1 [Olaparib] (partner 8 µM)
# Outline: (§1)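 Medians of duplicate plates are given as relative viability. That measure is the nuclei count in treated wells divided by the count in vehicle wells. Counts were taken on 4× images of lung cancer cell lines in 1536-well plates, 5 days after pin-tool dosing the day after seeding with one drug alone or a fixed anchor-drug dose plus five library-drug doses (not always all listed) in √10 steps.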
# NVP-TAE684 + Vorinostat = compound: COc1cc(N2CCC(N3CCN(C)CC3)CC2)ccc1Nc1ncc(Cl)c(Nc2ccccc2S(=O)(=O)C(C)C)n1 [NVP-TAE684] + O=C(CCCCCCC(=O)Nc1ccccc1)NO [Vorinostat] (partner 1 µM)
# Outline: as §1
# Vandetanib + OSI-027 = compound: COc1cc2/c(=N/c3ccc(Br)cc3F)nc[nH]c2cc1OCC1CCN(C)CC1 [Vandetanib] + COc1cccc2cc(-c3nc([C@H]4CC[C@H](C(=O)O)CC4)n4ncnc(N)c34)[nH]c12 [OSI-027] (partner 0.5 µM)
# Outline: as §1
# Vandetanib + Vorinostat = compound: COc1cc2/c(=N/c3ccc(Br)cc3F)nc[nH]c2cc1OCC1CCN(C)CC1 [Vandetanib] + O=C(CCCCCCC(=O)Nc1ccccc1)NO [Vorinostat] (partner 1 µM)
# Outline: as §1
Cell Line,relative viability ([1]; first compound 0.005 µM),relative viability ([1]; first compound 0.01581 µM),relative viability ([1]; first compound 0.05 µM),relative viability ([1]; first compound 0.1581 µM),relative viability ([1]; first compound 0.5 µM),relative viability (NVP-TAE684 + Vorinostat; first compound 0.2 µM),relative viability (NVP-TAE684 + Vorinostat; first compound 0.6325 µM),relative viability (NVP-TAE684 + Vorinostat; first compound 2 µM),relative viability (Vandetanib + OSI-027; first compound 0.02 µM),relative viability (Vandetanib + OSI-027; first compound 0.06325 µM),relative viability (Vandetanib + OSI-027; first compound 0.2 µM),relative viability (Vandetanib + OSI-027; first compound 0.6325 µM),relative viability (Vandetanib + OSI-027; first compound 2 µM),relative viability (Vandetanib + Vorinostat; first compound 0.02 µM),relative viability (Vandetanib + Vorinostat; first compound 0.06325 µM),relative viability (Vandetanib + Vorinostat; first compound 0.2 µM),relative viability (Vandetanib + Vorinostat; first compound 0.6325 µM),relative viability (Vandetanib + Vorinostat; first compound 2 µM)
NCI-H2009,0.667,0.669,0.664,0.438,0.684,0.733,0.554,0.495,0.643,0.6,0.687,0.644,0.59,0.724,0.638,0.727,0.783,0.756
NCI-H1395,0.476,,0.475,0.457,0.541,0.71,0.554,0.711,0.614,0.65,0.665,0.526,0.588,0.622,0.881,0.495,0.63,0.596
NCI-H1650,0.718,0.719,0.708,0.882,0.507,0.573,0.561,0.502,0.621,0.436,0.552,0.452,0.439,0.525,0.502,0.599,0.544,0.452
NCI-H2085,0.765,0.765,0.738,0.778,0.794,0.817,0.755,0.725,0.797,0.795,0.735,0.673,0.559,0.836,0.74,0.66,0.773,0.777
NCI-H1666,0.754,0.761,0.764,0.767,0.681,0.99,0.964,0.877,0.858,0.765,0.836,0.788,0.751,1.06,0.968,1.09,0.964,0.993
NCI-H1993,0.903,1.06,1.18,0.986,1.06,0.713,0.695,0.48,0.521,0.573,0.557,0.637,0.552,,0.741,0.797,0.639,0.566
NCI-H1437,0.542,0.607,0.65,0.673,0.507,0.832,0.899,0.426,0.835,0.899,0.868,0.886,0.964,0.824,0.819,0.866,0.937,0.995
ABC-1,0.731,,0.803,0.825,0.936,,1.01,0.527,0.43,0.464,0.488,0.479,0.254,1.05,1.11,1.02,0.96,0.773
NCI-H727,0.734,0.622,0.806,0.746,0.679,1.09,1.25,0.869,0.533,0.551,0.536,0.545,0.446,1.11,1.18,1.13,1.26,0.992
PC-3 [JPC-3],1.01,,1.08,1.12,0.679,0.908,0.72,0.578,0.757,0.768,0.795,0.462,0.45,0.808,0.739,0.492,0.449,0.348
NCI-H1792,,0.709,0.427,0.38,0.215,,,,0.761,0.715,0.784,0.751,0.63,,,,,
NCI-H1355,0.704,0.761,0.764,0.825,0.769,0.561,0.605,0.327,0.446,0.362,0.386,0.5,0.387,0.603,0.565,0.671,0.624,0.649
HCC-827,0.568,0.616,0.728,0.657,0.566,0.754,0.762,0.793,0.895,0.752,0.707,0.164,0.149,0.788,0.82,0.815,0.369,0.327
NCI-H1944,0.358,0.432,0.361,0.41,0.619,0.637,0.475,0.486,0.398,0.433,0.408,0.396,0.382,0.51,0.542,0.526,0.476,0.602
NCI-H2405,0.797,0.835,0.897,0.867,0.77,1.09,0.896,0.518,0.621,0.422,0.72,0.671,0.482,1.02,0.885,0.97,1.14,0.898
NCI-H650,0.412,0.369,0.441,0.345,0.363,0.428,0.298,0.406,0.491,0.531,,0.521,0.447,0.585,0.533,0.514,0.544,0.341
HCC-366,0.189,0.449,0.349,0.372,0.354,0.365,0.311,0.239,0.807,0.876,0.978,0.824,0.948,0.277,0.326,0.278,0.31,0.438
IA-LM,,0.883,0.804,0.836,0.763,0.66,0.897,0.7,,,,,,1.06,0.969,0.935,1.06,0.874
Calu-6,0.602,0.619,0.52,0.644,0.505,,,,,,,,,,,,,
NCI-H1703,0.357,0.353,,0.377,0.66,,,,,,,,,,,,,
NCI-H1623,,,,,,,,,0.479,0.439,0.454,0.398,0.455,,,,,
NCI-H1563,,,,,,,,,0.79,0.8,0.743,0.76,0.734,,,,,
EBC-1,0.784,0.757,0.656,0.629,0.574,,,,,,,,,,,,,
